Source: ChEMBL document CHEMBL5512597, “Triazole hybrid compounds: A new frontier in malaria treatment” (Eur J Med Chem, 2023)
Converted amounts (≈) assume the structure as drawn. One block for each compound: values may come before it.

Key:
Plasmodium falciparum [1] = test: Antimalarial activity against Plasmodium falciparum 3D7 at asexual erythrocytic stage assessed as parasite growth inhibition measured after 24 hrs by [3H]-hypoxanthine incorporation assay; format: functional, organism-based
Plasmodium falciparum [2] = test: Antimalarial activity against Plasmodium falciparum 3D7 infected in A+ human erythrocytes assessed as reduction in parasite growth incubated for 72 hrs by SYBR Green I staining based analysis; format: functional, organism-based; settings: 3D7, Erythrocyte
Plasmodium falciparum [3] = test: Antimalarial activity against Plasmodium falciparum; format: functional, organism-based
Plasmodium falciparum [4] = test: Antimalarial activity against Plasmodium falciparum Dd2 infected in A+ human erythrocytes assessed as reduction in parasite growth incubated for 72 hrs by SYBR Green I staining based analysis; format: functional, organism-based; settings: Dd2, Erythrocyte
Plasmodium falciparum [5] = test: Antimalarial activity against Plasmodium falciparum K1 infected in A+ human erythrocytes assessed as reduction in parasite growth incubated for 72 hrs by SYBR Green I staining based analysis; format: functional, organism-based; settings: K1, Erythrocyte
Plasmodium falciparum [6] = test: Antimalarial activity against CQ-resistant Plasmodium falciparum Dd2; format: functional, organism-based
[7] = Cytotoxicity against human erythrocytes; format: toxicity, cell-based, Erythrocyte
Plasmodium falciparum [8] = test: Antimalarial activity against Plasmodium falciparum assessed as parasite growth inhibition incubated for 36 to 40 hrs by JSB staining based analysis; format: functional, organism-based
Plasmodium falciparum [9] = test: Antimalarial activity against CQ-resistant Plasmodium falciparum K1; format: functional, organism-based

SMILES: Cc1cc(=O)oc2cc(OCc3cn(-c4ccc(S(N)(=O)=O)cc4)nn3)ccc12
- IC50 (Plasmodium falciparum [1]): 3.64 µM

SMILES: C[C@H]1[C@@H](OCc2cn(-c3ccnc4cc(Cl)ccc34)nn2)O[C@@H]2O[C@@]3(C)CC[C@H]4[C@H](C)CC[C@@H]1[C@@]24OO3
- EC50 (Plasmodium falciparum [2]): 9 nM

SMILES: C[C@H]1[C@H](OC(=O)CCC(=O)OCc2cn(-c3ccnc4cc(Cl)ccc34)nn2)O[C@@H]2O[C@@]3(C)CC[C@H]4[C@H](C)CC[C@@H]1[C@@]24OO3
- EC50 (Plasmodium falciparum [2]): 5.3 nM

- IC50 (Plasmodium falciparum [3]): 1660 nM
SMILES: CC1=C(C(=O)Nc2ccccc2)C(c2ccc(OCc3cn(Cc4ccccc4)nn3)cc2)n2c(nc3ccccc32)N1 (centres undefined)

- IC50 (Plasmodium falciparum [3]): 3120 nM
SMILES: CC1=C(C(=O)Nc2ccccc2)C(c2ccc(OCc3cn(Cc4ccccc4)nn3)cc2)n2ncnc2N1 (centres undefined)

- IC50 (Plasmodium falciparum [3]): 2860 nM
SMILES: CC1=C(C(=O)Nc2ccc(C(F)(F)F)cc2)C(c2ccc(OCc3cn(Cc4ccccc4)nn3)cc2)n2c(nc3ccccc32)N1 (centres undefined)

SMILES: CCCCc1nc(C)c2ccc(-c3cn(CCOC(=O)CCC(=O)O[C@@H]4O[C@@H]5O[C@@]6(C)CC[C@H]7[C@H](C)CC[C@@H]([C@H]4C)[C@@]57OO6)nn3)cc2c1CCCC
- EC50 (Plasmodium falciparum [2]): 9.2 nM
- EC50 (Plasmodium falciparum [4]): 10 nM
- EC50 (Plasmodium falciparum [5]): 4.2 nM

- IC50 (Plasmodium falciparum [3]): 3120 nM
SMILES: CC1=C(C(=O)Nc2cccc(Cl)c2)C(c2ccc(OCc3cn(Cc4ccccc4)nn3)cc2)n2c(nc3ccccc32)N1 (centres undefined)

- IC50 (Plasmodium falciparum [3]): 1680 nM
SMILES: CC1=C(C(=O)Nc2ccc(Cl)cc2)C(c2ccc(OCc3cn(Cc4ccccc4)nn3)cc2)n2ncnc2N1 (centres undefined)

SMILES: O=[N+]([O-])c1cccc(Cn2cc(CO)nn2)c1
- IC50 (Plasmodium falciparum [6]): 0.64 µg/mL (≈ 2.73 µM)
- CC50 [7]: 87.4 µg/mL (≈ 373 µM)

SMILES: O=c1cc(OCc2cn(-c3ccc(OCc4cccc([N+](=O)[O-])c4)cc3)nn2)c2ccccc2o1
- IC50 (Plasmodium falciparum [8]): 0.6 µg/mL (≈ 1.28 µM)

- IC50 (Plasmodium falciparum [3]): 2110 nM
SMILES: CC1=C(C(=O)Nc2ccccc2Cl)C(c2ccc(OCc3cn(Cc4ccccc4)nn3)cc2)n2c(nc3ccccc32)N1 (centres undefined)

SMILES: O=c1cc(OCc2cn(-c3ccc(OCc4ccccc4[N+](=O)[O-])cc3)nn2)c2ccccc2o1
- IC50 (Plasmodium falciparum [8]): 0.98 µg/mL (≈ 2.08 µM)

SMILES: Cc1cc(C)nc(NS(=O)(=O)c2ccc(-n3cc(COc4cc5oc(=O)cc(C)c5cc4Cl)nn3)cc2)n1
- IC50 (Plasmodium falciparum [1]): 18.1 µM

SMILES: O=c1ccc2ccc(OCc3cn(-c4ccc(S(=O)(=O)N5CCOCC5)cc4)nn3)cc2o1
- IC50 (Plasmodium falciparum [1]): > 85.5 µM

- IC50 (Plasmodium falciparum [3]): 1680 nM
SMILES: CC1=C(C(=O)Nc2ccccc2Cl)C(c2ccc(OCc3cn(Cc4ccccc4)nn3)cc2)n2ncnc2N1 (centres undefined)

- IC50 (Plasmodium falciparum [3]): 184 nM
SMILES: O=C(Cn1cc(CSc2ccc(Br)cc2)nn1)OCc1ccc([N+](=O)[O-])cc1

SMILES: Cc1ccccc1COc1ccc(-n2cc(COc3cc(=O)oc4ccccc34)nn2)cc1
- IC50 (Plasmodium falciparum [8]): 0.53 µg/mL (≈ 1.21 µM)

SMILES: Cc1cccc(COc2ccc(-n3cc(COc4cc(=O)oc5ccccc45)nn3)cc2)c1
- IC50 (Plasmodium falciparum [8]): 1.05 µg/mL (≈ 2.39 µM)

- IC50 (Plasmodium falciparum [3]): 178 nM
SMILES: COc1ccc(COC(=O)Cn2cc(CSc3ccc(Br)cc3)nn2)cc1

SMILES: C[C@H]1[C@H](OC(=O)CCC(=O)OCCc2cn(-c3ccnc4cc(Cl)ccc34)nn2)O[C@@H]2O[C@@]3(C)CC[C@H]4[C@H](C)CC[C@@H]1[C@@]24OO3
- EC50 (Plasmodium falciparum [2]): 8 nM
- EC50 (Plasmodium falciparum [4]): 4.9 nM
- EC50 (Plasmodium falciparum [5]): 2.6 nM

- IC50 (Plasmodium falciparum [3]): 820 nM
SMILES: CC1=C(C(=O)Nc2ccc(C(F)(F)F)cc2)C(c2ccc(OCc3cn(Cc4ccccc4)nn3)cc2)n2ncnc2N1 (centres undefined)

SMILES: C[C@H]1[C@H](OCc2cn(-c3ccnc4cc(Cl)ccc34)nn2)O[C@@H]2O[C@@]3(C)CC[C@H]4[C@H](C)CC[C@@H]1[C@@]24OO3
- EC50 (Plasmodium falciparum [2]): 27.5 nM
- EC50 (Plasmodium falciparum [4]): 10.6 nM
- EC50 (Plasmodium falciparum [5]): 5.9 nM

SMILES: C[C@H]1[C@@H](OCCCn2cc(-c3ccnc4cc(Cl)ccc34)nn2)O[C@@H]2O[C@@]3(C)CC[C@H]4[C@H](C)CC[C@@H]1[C@@]24OO3
- EC50 (Plasmodium falciparum [2]): 9.4 nM
- EC50 (Plasmodium falciparum [4]): 5.2 nM
- EC50 (Plasmodium falciparum [5]): 3.8 nM

- IC50 (Plasmodium falciparum [3]): 1920 nM
SMILES: CC1=C(C(=O)Nc2ccc(C)cc2)C(c2ccc(OCc3cn(Cc4ccccc4)nn3)cc2)n2c(nc3ccccc32)N1 (centres undefined)

SMILES: OCc1cn(Cc2ccc(Cl)cc2)nn1
- IC50 (Plasmodium falciparum [6]): 22.1 µg/mL (≈ 98.9 µM)
- CC50 [7]: 88.6 µg/mL (≈ 396 µM)

SMILES: O=[N+]([O-])c1ccc(Cn2cc(-c3ccccc3CBr)nn2)cc1
- IC50 (Plasmodium falciparum [6]): > 100 µg/mL
- CC50 [7]: > 100 µg/mL

SMILES: CO[C@@H]1C(=O)N(c2ccc(OCc3cn(Cc4ccccc4)nn3)cc2)[C@@H]1c1ccc(OCc2cn(Cc3ccccc3)nn2)cc1
- IC50 (Plasmodium falciparum [9]): 850 nM

SMILES: O=[N+]([O-])c1ccc(Cn2cc(-c3ccccc3CO)nn2)cc1
- IC50 (Plasmodium falciparum [6]): > 100 µg/mL
- CC50 [7]: 33.3 µg/mL (≈ 107 µM)

SMILES: O=c1ccc2ccc(OCc3cn(-c4ccc(OCc5ccc(F)cc5)cc4)nn3)cc2o1
- IC50 (Plasmodium falciparum [8]): 0.49 µg/mL (≈ 1.11 µM)

SMILES: O=c1ccc2ccc(OCc3cn(-c4ccc(OCc5ccc(Cl)cc5)cc4)nn3)cc2o1
- IC50 (Plasmodium falciparum [8]): 0.86 µg/mL (≈ 1.87 µM)

SMILES: O=C1[C@@H](Oc2ccc(Cl)cc2Cl)[C@@H](c2ccc(OCc3cn(Cc4ccccc4)nn3)cc2)N1c1ccc(OCc2cn(Cc3ccccc3)nn2)cc1
- IC50 (Plasmodium falciparum [9]): < 970 nM
